Data taken from the supplement of paper PMC10307832.

Assays:
Assay in all cases: relative viability (nuclei count vs DMSO), 5 days (fraction); higher = more cells survive
AZD8055 + OSI-027 = compound: COc1ccc(-c2ccc3c(N4CCOC[C@@H]4C)nc(N4CCOC[C@@H]4C)nc3n2)cc1CO [AZD8055] + COc1cccc2cc(-c3nc([C@H]4CC[C@H](C(=O)O)CC4)n4ncnc(N)c34)[nH]c12 [OSI-027] (partner 0.5 µM)
In short: (§1)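 Dosing by pin tool came one day after lung cancer cell lines were seeded in 1536-well plates, using either one drug or a fixed anchor-drug dose plus five library-drug doses (not always all listed) in √10 steps. After 5 days, nuclei were counted on 4× images. Relative viability is treated-well nuclei count divided by vehicle-well nuclei count, and values are medians of duplicate plates.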

AZD8055 + Lapatinib = compound: COc1ccc(-c2ccc3c(N4CCOC[C@@H]4C)nc(N4CCOC[C@@H]4C)nc3n2)cc1CO [AZD8055] + CS(=O)(=O)CCNCc1ccc(-c2ccc3ncnc(Nc4ccc(OCc5cccc(F)c5)c(Cl)c4)c3c2)o1 [Lapatinib] (partner 2 µM)
In short: as §1

AZD8055 + Linsitinib = compound: COc1ccc(-c2ccc3c(N4CCOC[C@@H]4C)nc(N4CCOC[C@@H]4C)nc3n2)cc1CO [AZD8055] + C[C@]1(O)C[C@@H](c2nc(-c3ccc4ccc(-c5ccccc5)nc4c3)c3c(N)nccn32)C1 [Linsitinib] (partner 1 µM)
In short: as §1

AZD8055 + Alpelisib = compound: COc1ccc(-c2ccc3c(N4CCOC[C@@H]4C)nc(N4CCOC[C@@H]4C)nc3n2)cc1CO [AZD8055] + Cc1nc(NC(=O)N2CCC[C@H]2C(N)=O)sc1-c1ccnc(C(C)(C)C(F)(F)F)c1 [Alpelisib] (partner 2 µM)
In short: as §1

Cell Line	relative viability (AZD8055 + OSI-027; first compound 0.01 µM)	relative viability (AZD8055 + OSI-027; first compound 0.03162 µM)	relative viability (AZD8055 + OSI-027; first compound 0.1 µM)	relative viability (AZD8055 + OSI-027; first compound 0.3162 µM)	relative viability (AZD8055 + OSI-027; first compound 1 µM)	relative viability (AZD8055 + Lapatinib; first compound 0.01 µM)	relative viability (AZD8055 + Lapatinib; first compound 0.03162 µM)	relative viability (AZD8055 + Lapatinib; first compound 0.1 µM)	relative viability (AZD8055 + Lapatinib; first compound 0.3162 µM)	relative viability (AZD8055 + Lapatinib; first compound 1 µM)	relative viability (AZD8055 + Linsitinib; first compound 0.01 µM)	relative viability (AZD8055 + Linsitinib; first compound 0.03162 µM)	relative viability (AZD8055 + Linsitinib; first compound 0.1 µM)	relative viability (AZD8055 + Linsitinib; first compound 0.3162 µM)	relative viability (AZD8055 + Linsitinib; first compound 1 µM)	relative viability (AZD8055 + Alpelisib; first compound 0.01 µM)	relative viability (AZD8055 + Alpelisib; first compound 0.03162 µM)	relative viability (AZD8055 + Alpelisib; first compound 0.1 µM)	relative viability (AZD8055 + Alpelisib; first compound 0.3162 µM)	relative viability (AZD8055 + Alpelisib; first compound 1 µM)
NCI-H1651	0.871	0.682	0.603	0.32	0.413	0.844	0.569	0.585	0.403	0.324	0.845	0.796	0.689	0.305	0.282	1.04	0.716	0.671	0.405	0.325
NCI-H1666	0.894	0.905	0.887	0.747	0.717	0.587	0.488	0.488	0.355	0.362	0.802	0.666	0.417	0.552	0.375	0.884	0.696	0.621	0.47	0.438
NCI-H1734	0.665	0.553	0.493	0.319	0.225	1.17	0.789	0.57	0.308	0.242	0.857	0.638	0.457	0.289	0.262	0.762	0.554	0.378	0.226	0.23
NCI-H1755	0.752	0.698	0.649	0.544	0.537	1.07	0.815	0.935	0.565	0.457	0.95	0.867	0.764	0.474	0.403	0.879	0.744	0.607	0.378	0.363
NCI-H1792	0.799	0.674	0.574	0.431	0.26	1.02	0.838	0.808	0.15	0.131	0.292	0.233	0.223	0.128	0.101	0.447	0.482	0.361	0.131	0.108
NCI-H1793	0.291	0.215	0.196	0.18	0.202	0.422	0.346	0.305	0.308	0.276	0.539	0.315	0.224	0.197	0.18	0.605	0.347	0.224	0.175	0.17
NCI-H1915	0.664	0.551	0.656	0.547	0.459	1.1	0.876	1.01	0.655	0.522	1.19	0.977	1.08	0.837	0.558	1.12	0.941	0.996	0.645	0.455
NCI-H1944	0.418	0.454	0.378	0.297	0.24	0.766	0.655	0.615	0.367	0.336	1.13	0.843	0.693	0.477	0.335	0.716	0.63	0.543	0.366	0.25
